Columns and labels:
Assay type in all cases: in vivo
[1] = test system: barnyardgrass (Echinochloa crusgalli); test: Test B flooded paddy test, visual plant response rating 0-100; details: 250 g ai/ha, Flood, applied to paddy water, evaluated after 13 days
Summary of the method: (§1)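 Plants were grown to the 2-leaf stage, then pots were flooded to 3 cm above the soil and test compounds were applied directly into the paddy water. Water depth was held there throughout; after 13 days in a greenhouse, injury was scored visually against untreated controls.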

[2] = test system: ducksalad (Heteranthera limosa); test: as above; details: 250 g ai/ha, Flood, applied to paddy water, evaluated after 13 days
Summary of the method: as §1

[3] = test system: sedge, umbrella (small-flower umbrella sedge, Cyperus difformis); test: as above; details: 250 g ai/ha, Flood, applied to paddy water, evaluated after 13 days
Summary of the method: as §1

rice (Oryza sativa) = test: as above; details: 250 g ai/ha, Flood, applied to paddy water, evaluated after 13 days
Summary of the method: as §1

soybean (Glycine max) [4] = test: Test A postemergence application, visual injury rating 0-100; details: 10 days
Summary of the method: (§2)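 Visual injury, scored 0-100 (100 = complete control) against untreated plants, 10 days after greenhouse treatment. Test chemicals in surfactant-containing non-phytotoxic solvent were applied in loam soil and sand, as a preemergence soil spray on seeds or postemergence to plants at the one- to two-leaf stage.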

[5] = test system: oat, wild (wild oat, Avena fatua); test: as above; details: 10 days
Summary of the method: as §2

[6] = test system: barnyardgrass (Echinochloa crus-galli); test: as above; details: 10 days
Summary of the method: as §2

corn (Zea mays) [7] = test: as above; details: 10 days
Summary of the method: as §2

[8] = test system: galium (catchweed bedstraw, Galium aparine); test: as above; details: 10 days
Summary of the method: as §2

[9] = test system: blackgrass (Alopecurus myosuroides); test: as above; details: 10 days
Summary of the method: as §2

[10] = test system: horseweed (Erigeron canadensis); test: as above; details: 10 days
Summary of the method: as §2

[11] = test system: ragweed (common ragweed, Ambrosia artemisiifolia); test: as above; details: 10 days
Summary of the method: as §2

[12] = test system: wheat (Triticum aestivum); test: as above; details: 10 days
Summary of the method: as §2

[13] = test system: palmer (palmer amaranth, palmer pigweed, Amaranthus palmeri); test: as above; details: 10 days
Summary of the method: as §2

[14] = test system: ryegrass, Italian (italian ryegrass, Lolium multiflorum); test: as above; details: 10 days
Summary of the method: as §2

[15] = test system: green foxtail (Setaria viridis); test: as above; details: 10 days
Summary of the method: as §2

kochia (Bassia scoparia) [16] = test: as above; details: 10 days
Summary of the method: as §2

soybean (Glycine max) [17] = test: Test A preemergence soil spray, visual injury rating 0-100; details: 10 days, 0 = no effect, 100 = complete control
Summary of the method: as §2

[18] = test system: oat, wild (wild oat, Avena fatua); test: as above; details: 10 days, 0 = no effect, 100 = complete control
Summary of the method: as §2

[19] = test system: barnyardgrass (Echinochloa crus-galli); test: as above; details: 10 days, 0 = no effect, 100 = complete control
Summary of the method: as §2

corn (Zea mays) [20] = test: as above; details: 10 days, 0 = no effect, 100 = complete control
Summary of the method: as §2

[21] = test system: blackgrass (Alopecurus myosuroides); test: as above; details: 10 days, 0 = no effect, 100 = complete control
Summary of the method: as §2

[22] = test system: ragweed (common ragweed, Ambrosia artemisiifolia); test: as above; details: 10 days, 0 = no effect, 100 = complete control
Summary of the method: as §2

[23] = test system: wheat (Triticum aestivum); test: as above; details: 10 days, 0 = no effect, 100 = complete control
Summary of the method: as §2

[24] = test system: palmer (palmer amaranth, palmer pigweed, Amaranthus palmeri); test: as above; details: 10 days, 0 = no effect, 100 = complete control
Summary of the method: as §2

[25] = test system: ryegrass, Italian (italian ryegrass, Lolium multiflorum); test: as above; details: 10 days, 0 = no effect, 100 = complete control
Summary of the method: as §2

[26] = test system: green foxtail (Setaria viridis); test: as above; details: 10 days, 0 = no effect, 100 = complete control
Summary of the method: as §2

kochia (Bassia scoparia) [27] = test: as above; details: 10 days, 0 = no effect, 100 = complete control
Summary of the method: as §2

[28] = 31 g ai/ha, postemergence, 0 = no effect, 100 = complete control
[29] = Postemergence, 125 g ai/ha, 0 is no effect, 100 is complete control

CC1(C(=O)NC2C=CC(C(=O)O)C2)CN(c2cc(Cl)cc(Cl)c2)C(=O)O1 (stereo not shown) [Compound 62]
Plant response rating, Barnyardgrass (0 to 100 scale, 0 is no effect and 100 is complete control) [1]: 50
Plant response rating, Ducksalad (0 to 100 scale, 0 is no effect and 100 is complete control) [2]: 90
Plant response rating, Sedge, Umbrella (0 to 100 scale, 0 is no effect and 100 is complete control) [3]: 98
Plant response rating, Rice (0 to 100 scale, 0 is no effect and 100 is complete control) (rice (Oryza sativa)): 15
Soybean plant response rating (0-100) (soybean (Glycine max) [4]; [28]): 80
Soybean plant response rating (0 to 100 scale) (soybean (Glycine max) [4]; [29]): 90
Oat, Wild plant response rating (0-100) [5, 28]: 90
Oat, Wild plant response rating (0 to 100 scale) [5, 29]: 90
Barnyardgrass plant response rating (0-100) [6, 28]: 100
Barnyardgrass plant response rating (0 to 100 scale) [6, 29]: 100
Corn plant response rating (0-100) (corn (Zea mays) [7]; [28]): 100
Corn plant response rating (0 to 100 scale) (corn (Zea mays) [7]; [29]): 100
Galium plant response rating (0-100) [8, 28]: 80
Galium plant response rating (0 to 100 scale) [8, 29]: 80
Blackgrass plant response rating (0-100) [9, 28]: 90
Blackgrass plant response rating (0 to 100 scale) [9, 29]: 100
Horseweed plant response rating (0-100) [10, 28]: 50
Horseweed plant response rating (0 to 100 scale) [10, 29]: 70
Ragweed plant response rating (0-100) [11, 28]: 40
Ragweed plant response rating (0 to 100 scale) [11, 29]: 90
Wheat plant response rating (0-100) [12, 28]: 90
Wheat plant response rating (0 to 100 scale) [12, 29]: 90
Amaranth, Palmer plant response rating (0-100) [13, 28]: 90
Amaranth, Palmer / Pigweed, Palmer plant response rating (0 to 100 scale) [13, 29]: 90
Ryegrass, Italian plant response rating (0-100) [14, 28]: 90
Ryegrass, Italian plant response rating (0 to 100 scale) [14, 29]: 100
Foxtail, Green plant response rating (0-100) [15, 28]: 90
Foxtail, Green plant response rating (0 to 100 scale) [15, 29]: 90
Kochia plant response rating (0-100) (kochia (Bassia scoparia) [16]; [28]): 70
Kochia plant response rating (0 to 100 scale) (kochia (Bassia scoparia) [16]; [29]): 80
Soybean plant response rating (0-100) (soybean (Glycine max) [17]; 31 g ai/ha): 0
Soybean plant response rating (0 to 100 scale) (soybean (Glycine max) [17]; 125 g ai/ha): 60
Oat, Wild plant response rating (0-100) ([18]; 31 g ai/ha): 40
Oat, Wild plant response rating (0 to 100 scale) ([18]; 125 g ai/ha): 70
Barnyardgrass plant response rating (0-100) ([19]; 31 g ai/ha): 80
Barnyardgrass plant response rating (0 to 100 scale) ([19]; 125 g ai/ha): 100
Corn plant response rating (0-100) (corn (Zea mays) [20]; 31 g ai/ha): 30
Corn plant response rating (0 to 100 scale) (corn (Zea mays) [20]; 125 g ai/ha): 80
Blackgrass plant response rating (0-100) ([21]; 31 g ai/ha): 30
Blackgrass plant response rating (0 to 100 scale) ([21]; 125 g ai/ha): 70
Ragweed plant response rating (0-100) ([22]; 31 g ai/ha): 30
Ragweed plant response rating (0 to 100 scale) ([22]; 125 g ai/ha): 20
Wheat plant response rating (0-100) ([23]; 31 g ai/ha): 80
Wheat plant response rating (0 to 100 scale) ([23]; 125 g ai/ha): 90
Amaranth, Palmer plant response rating (0-100) ([24]; 31 g ai/ha): 90
Amaranth, Palmer plant response rating (0 to 100 scale) ([24]; 125 g ai/ha): 100
Ryegrass, Italian plant response rating (0-100) ([25]; 31 g ai/ha): 60
Ryegrass, Italian plant response rating (0 to 100 scale) ([25]; 125 g ai/ha): 80
Foxtail, Green plant response rating (0-100) ([26]; 31 g ai/ha): 80
Foxtail, Green plant response rating (0 to 100 scale) ([26]; 125 g ai/ha): 90
Kochia plant response rating (0-100) (kochia (Bassia scoparia) [27]; 31 g ai/ha): 30
Kochia plant response rating (0 to 100 scale) (kochia (Bassia scoparia) [27]; 125 g ai/ha): 90

Source: patent publication US20260285850A1, “SUBSTITUTED OXAZOLIDINONES AND IMIDAZOLINONES AS HERBICIDES” (FMC CORPORATION, priority 2023, published 2026)
